According to ChEMBL document CHEMBL1132118, “Structure-based design, synthesis, and biological evaluation of irreversible human rhinovirus 3C protease inhibitors. 3. Structure-activity studies of ketomethylene-containing peptidomimetics” (J Med Chem, 1999):

Assays:
Type in all cases: functional
[1] = The 50% cytotoxic concentration was calculated as the concentration of the drug that decreased the percentage of formazan produced in drug-treated,uninfected cells to 50% of that produced in drug free uninfected cells on serotype 14.
[2] = molecular target: T1, Human rhinovirus A protease (Human rhinovirus sp.) (UniProt Q4U254); test: The EC90 was calculated as the concentration of drug that increased the percentage of formazan production in drug treated, virus infected cells to 50% of that produced by drug free uninfected cells on human rhinovirus-2.
T1 sequence (whole entry): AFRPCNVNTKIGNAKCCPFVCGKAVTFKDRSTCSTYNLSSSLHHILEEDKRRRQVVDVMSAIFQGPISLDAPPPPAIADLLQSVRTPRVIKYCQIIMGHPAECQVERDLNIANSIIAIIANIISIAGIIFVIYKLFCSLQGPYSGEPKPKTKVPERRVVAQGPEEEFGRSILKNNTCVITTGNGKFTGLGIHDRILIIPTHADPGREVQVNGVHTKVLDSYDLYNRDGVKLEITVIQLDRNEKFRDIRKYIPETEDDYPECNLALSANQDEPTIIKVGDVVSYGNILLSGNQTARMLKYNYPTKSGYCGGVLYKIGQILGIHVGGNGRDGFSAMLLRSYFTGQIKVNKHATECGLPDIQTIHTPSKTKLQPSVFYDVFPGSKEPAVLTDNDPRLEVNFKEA

[3] = molecular target: T1, Human rhinovirus A protease (Human rhinovirus sp.); test: The EC90 was calculated as the concentration of drug that increased the percentage of formazan production in drug treated, virus infected cells to 50% of that produced by drug free uninfected cells on human rhinovirus-1A.
[4] = molecular target: T1, Human rhinovirus A protease (Human rhinovirus sp.); test: The EC90 was calculated as the concentration of drug that increased the percentage of formazan production in drug treated, virus infected cells to 50% of that produced by drug free uninfected cells on human rhinovirus-14.
[5] = molecular target: T1, Human rhinovirus A protease (Human rhinovirus sp.); test: The EC90 was calculated as the concentration of drug that increased the percentage of formazan production in drug treated, virus infected cells to 50% of that produced by drug free uninfected cells on human rhinovirus-10.

CCOC(=O)/C=C/[C@H](CCC(N)=O)NC(=O)[C@@H](CC(=O)[C@@H](NC(=O)SC1CCCC1)C(C)C)Cc1ccc(F)cc1
CC50 [1]: > 100000 nM
EC90 [2]: 250 nM
EC90 [3]: 200 nM
EC90 [4]: 100 nM
EC90 [5]: 250 nM

CCOC(=O)/C=C/[C@H](CCC(N)=O)NC(=O)[C@@H](CC(=O)[C@H](CC(C)C)NC(=O)SC1CCCC1)Cc1ccc(C)cc1
CC50 [1]: > 100000 nM

CCOC(=O)/C=C/[C@H](CCC(N)=O)NC(=O)[C@@H](CC(=O)[C@@H](NC(=O)SC1CCCC1)C(C)C)Cc1ccc(C(F)(F)F)cc1
CC50 [1]: > 100000 nM

CCOC(=O)/C=C/[C@H](CCC(N)=O)NC(=O)[C@@H](CC(=O)[C@@H](NC(=O)SC1CCCC1)C(C)(C)C)Cc1ccccc1
CC50 [1]: > 100000 nM

CCOC(=O)/C=C/[C@H](CCC(N)=O)NC(=O)[C@H](Cc1ccccc1)NC(=O)[C@H](CC(C)C)NC(=O)OCc1ccccc1
CC50 [1]: > 320000 nM

CCOC(=O)/C=C/[C@H](CCC(N)=O)NC(=O)[C@@H](CC(=O)[C@H](Cc1ccccc1)NC(=O)SC1CCCC1)Cc1ccc(F)cc1
CC50 [1]: > 100000 nM

CCOC(=O)/C=C/[C@H](CCC(N)=O)NC(=O)[C@@H](CC(=O)[C@H](Cc1ccccc1)NC(=O)SC1CCCC1)Cc1ccc(C)cc1
CC50 [1]: > 100000 nM

CCOC(=O)/C=C/[C@H](CCC(N)=O)NC(=O)[C@@H](CC(=O)[C@@H](NC(=O)c1cc(C)on1)C(C)C)Cc1ccc(F)cc1
EC90 [4]: 320 nM
EC90 [5]: 790 nM

CCOC(=O)/C=C/[C@H](CCC(N)=O)NC(=O)[C@@H](CC(=O)[C@@H](NC(=O)SC1CCCC1)C(C)C)Cc1ccc(C)cc1
CC50 [1]: > 100000 nM

CCOC(=O)/C=C/[C@H](CCC(N)=O)NC(=O)[C@@H](CC(=O)[C@@H](NC(=O)SCc1ccccc1)C(C)C)Cc1ccccc1
CC50 [1]: > 100000 nM

CCOC(=O)/C=C/[C@H](CCC(N)=O)NC(=O)[C@@H](CC(=O)[C@@H](NC(=O)SC1CCCC1)C(C)C)Cc1ccccc1
CC50 [1]: > 100000 nM

CCOC(=O)/C=C/[C@H](CCC(N)=O)NC(=O)[C@@H](CC(=O)[C@H](CC(C)C)NC(=O)OCc1ccccc1)Cc1ccccc1
CC50 [1]: > 320000 nM

CCOC(=O)/C=C/[C@H](CCC(N)=O)NC(=O)[C@@H](CC(=O)[C@H](CC(C)C)NC(=O)SC1CCCC1)Cc1ccc(F)cc1
CC50 [1]: > 100000 nM

CCOC(=O)/C=C/[C@H](CCC(N)=O)NC(=O)[C@@H](CC(=O)[C@H](CC(C)C)NC(=O)SCc1ccccc1)Cc1ccccc1
CC50 [1]: > 100000 nM

CCOC(=O)/C=C/[C@H](CCC(N)=O)NC(=O)[C@H](Cc1ccc(F)cc1)NC(=O)[C@@H](NC(=O)SC1CCCC1)C(C)C
EC90 [2]: 5400 nM
EC90 [3]: 2500 nM
EC90 [4]: 1800 nM
EC90 [5]: 2500 nM

CCOC(=O)/C=C/[C@H](CCC(N)=O)NC(=O)[C@@H](CC(=O)[C@H](CC(C)C)NC(=O)SC1CCCC1)Cc1ccccc1
CC50 [1]: > 100000 nM
